Laboratory results: ChEMBL document CHEMBL1909046, “DrugMatrix in vitro pharmacology data”

Assays:
[1] = DRUGMATRIX: Serotonin (5-Hydroxytryptamine) 5-HT3 radioligand binding (ligand: [3H] GR-65630); format: cell membranes, Membrane; details: hek293; Not Active = under 50% inhibition at 10 µM
[2] = DRUGMATRIX: Glutamate, NMDA, Phencyclidine radioligand binding (ligand: [3H] TCP); format: cell membranes, Rattus norvegicus, Wistar, Cerebral cortex, Membrane; details: Not Active = under 50% inhibition at 10 µM
[3] = DRUGMATRIX: Leukotriene, BLT (LTB4) radioligand binding (ligand: [3H]LTB4); format: cell membranes, Membrane; details: u-937; Not Active = under 50% inhibition at 10 µM
[4] = molecular target: Delta-type opioid receptor (Homo sapiens, UniProt P41143); format: cell membranes, HEK293, Membrane; details: hek293; also: in other assays of this panel Not Active means under 50% inhibition at 10 µM
[5] = molecular target: T1, Angiotensin-converting enzyme (Oryctolagus cuniculus, UniProt P12822); format: tissue-based, Lung;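 also: enzymatic inhibition of angiotensin-converting enzyme measured with FAPGG as the substrate; in other assays of this panel Not Active means under 50% inhibition at 10 µM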
T1 sequence (P12822 whole entry): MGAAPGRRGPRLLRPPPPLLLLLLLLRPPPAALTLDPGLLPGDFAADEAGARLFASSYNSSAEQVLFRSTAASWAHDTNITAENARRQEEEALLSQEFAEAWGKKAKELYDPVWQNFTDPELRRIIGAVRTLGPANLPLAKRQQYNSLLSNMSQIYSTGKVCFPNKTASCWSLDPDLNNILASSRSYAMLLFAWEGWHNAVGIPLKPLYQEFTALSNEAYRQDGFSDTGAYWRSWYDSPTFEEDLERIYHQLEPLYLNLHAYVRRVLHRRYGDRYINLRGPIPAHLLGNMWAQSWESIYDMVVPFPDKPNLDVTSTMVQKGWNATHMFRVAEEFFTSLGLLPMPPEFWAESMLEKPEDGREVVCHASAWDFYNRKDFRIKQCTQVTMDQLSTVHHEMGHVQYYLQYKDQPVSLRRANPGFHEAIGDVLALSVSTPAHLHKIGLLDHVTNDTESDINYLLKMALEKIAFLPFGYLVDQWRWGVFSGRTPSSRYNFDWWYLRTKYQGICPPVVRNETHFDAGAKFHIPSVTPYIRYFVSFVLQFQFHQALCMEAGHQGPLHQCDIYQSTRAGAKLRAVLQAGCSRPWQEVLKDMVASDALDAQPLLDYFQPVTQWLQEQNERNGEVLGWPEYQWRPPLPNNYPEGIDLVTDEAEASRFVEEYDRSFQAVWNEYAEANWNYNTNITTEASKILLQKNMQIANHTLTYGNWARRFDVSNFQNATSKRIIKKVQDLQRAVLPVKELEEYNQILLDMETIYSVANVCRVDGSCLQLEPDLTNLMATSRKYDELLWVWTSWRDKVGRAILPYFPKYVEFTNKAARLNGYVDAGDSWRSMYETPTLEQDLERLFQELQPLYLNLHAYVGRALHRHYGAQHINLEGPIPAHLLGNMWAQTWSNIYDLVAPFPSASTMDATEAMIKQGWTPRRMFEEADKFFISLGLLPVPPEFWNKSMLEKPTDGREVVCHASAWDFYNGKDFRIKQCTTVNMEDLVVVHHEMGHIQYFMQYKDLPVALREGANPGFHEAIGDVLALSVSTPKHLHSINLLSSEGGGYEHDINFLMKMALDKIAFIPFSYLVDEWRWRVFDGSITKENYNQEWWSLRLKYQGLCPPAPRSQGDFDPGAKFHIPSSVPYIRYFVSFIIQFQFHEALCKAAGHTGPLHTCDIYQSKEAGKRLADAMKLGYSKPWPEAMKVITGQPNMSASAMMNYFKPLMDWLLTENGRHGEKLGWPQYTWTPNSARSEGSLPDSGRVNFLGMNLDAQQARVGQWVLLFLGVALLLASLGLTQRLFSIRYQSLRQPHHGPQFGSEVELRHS

[6] = molecular target: Estrogen receptor beta (Homo sapiens, UniProt Q92731); details: sf9; also: in other assays of this panel Not Active means under 50% inhibition at 10 µM
[7] = molecular target: Cytochrome P450 3A4 (Homo sapiens, UniProt P08684); details: bti-tn-5b1-4; also: in other assays of this panel Not Active means under 50% inhibition at 10 µM
Chain of Cytochrome P450 3A4 (P08684 whole entry): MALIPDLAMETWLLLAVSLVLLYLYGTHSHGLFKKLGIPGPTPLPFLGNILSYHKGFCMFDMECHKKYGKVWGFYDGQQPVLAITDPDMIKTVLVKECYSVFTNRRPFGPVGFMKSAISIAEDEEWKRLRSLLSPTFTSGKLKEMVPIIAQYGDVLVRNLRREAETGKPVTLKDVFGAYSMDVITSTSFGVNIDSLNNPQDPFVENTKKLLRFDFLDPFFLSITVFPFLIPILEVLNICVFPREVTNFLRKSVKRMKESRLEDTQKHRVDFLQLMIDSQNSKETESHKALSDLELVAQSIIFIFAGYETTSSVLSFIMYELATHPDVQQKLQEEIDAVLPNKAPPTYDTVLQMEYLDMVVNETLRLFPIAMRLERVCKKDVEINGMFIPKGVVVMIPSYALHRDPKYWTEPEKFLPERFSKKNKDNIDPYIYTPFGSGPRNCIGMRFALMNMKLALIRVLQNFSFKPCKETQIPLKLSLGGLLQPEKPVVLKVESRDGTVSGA

Chain of Estrogen receptor beta (Q92731 whole entry): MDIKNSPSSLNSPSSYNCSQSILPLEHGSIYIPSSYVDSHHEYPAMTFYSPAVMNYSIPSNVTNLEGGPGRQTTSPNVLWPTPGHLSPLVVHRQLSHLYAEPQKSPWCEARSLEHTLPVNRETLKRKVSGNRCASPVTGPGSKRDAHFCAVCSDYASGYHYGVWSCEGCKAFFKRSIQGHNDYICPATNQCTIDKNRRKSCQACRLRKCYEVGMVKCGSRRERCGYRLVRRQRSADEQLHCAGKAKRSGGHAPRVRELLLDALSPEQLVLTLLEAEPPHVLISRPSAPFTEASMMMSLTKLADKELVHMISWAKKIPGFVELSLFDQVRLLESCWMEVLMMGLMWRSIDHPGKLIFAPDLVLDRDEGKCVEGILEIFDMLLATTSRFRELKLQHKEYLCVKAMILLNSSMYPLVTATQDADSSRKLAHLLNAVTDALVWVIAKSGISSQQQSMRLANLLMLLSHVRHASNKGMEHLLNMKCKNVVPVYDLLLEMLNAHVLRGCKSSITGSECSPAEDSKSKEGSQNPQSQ
Chain of Delta-type opioid receptor (P41143 whole entry): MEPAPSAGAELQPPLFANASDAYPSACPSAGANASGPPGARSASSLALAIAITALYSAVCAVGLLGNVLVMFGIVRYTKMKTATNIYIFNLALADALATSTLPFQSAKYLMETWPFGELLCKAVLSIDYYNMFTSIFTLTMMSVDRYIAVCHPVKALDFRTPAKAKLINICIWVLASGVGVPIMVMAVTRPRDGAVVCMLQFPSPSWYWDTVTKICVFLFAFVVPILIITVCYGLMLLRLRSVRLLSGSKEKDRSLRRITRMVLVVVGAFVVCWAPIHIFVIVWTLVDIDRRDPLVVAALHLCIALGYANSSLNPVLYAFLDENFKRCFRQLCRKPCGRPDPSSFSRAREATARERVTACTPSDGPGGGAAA

CCOc1nc2cccc(C(=O)O)c2n1Cc1ccc(-c2ccccc2-c2nnn[nH]2)cc1
Not Active: IC50 [1] | Ki [1] | IC50 [2] | Ki [2] | IC50 [3] | Ki [3] | IC50 [4] | IC50 [5] | IC50 [6]

O=C(O)CCCc1cccs1
Not Active: IC50 [1] | Ki [1] | IC50 [2] | Ki [2] | IC50 [3] | Ki [3] | IC50 [4] | IC50 [5] | IC50 [7] | Ki [7] | IC50 [6]

O=C(c1ccccc1F)N1CCC(Cc2ccccc2)CC1
Not Active: IC50 [1] | Ki [1] | IC50 [2] | Ki [2] | IC50 [3] | Ki [3] | IC50 [4] | IC50 [5] | IC50 [7] | Ki [7] | IC50 [6]

CC(O)COC[C@H]1O[C@@H]2O[C@H]3[C@H](O)[C@@H](O)[C@@H](O[C@H]4[C@H](O)[C@@H](O)[C@@H](O[C@H]5[C@H](O)[C@@H](O)[C@@H](O[C@H]6[C@H](O)[C@@H](O)[C@@H](O[C@H]7[C@H](O)[C@@H](O)[C@@H](O[C@H]8[C@H](O)[C@@H](O)[C@@H](O[C@H]1[C@H](O)[C@H]2O)O[C@@H]8COCC(C)O)O[C@@H]7COCC(C)O)O[C@@H]6COCC(C)O)O[C@@H]5COCC(C)O)O[C@@H]4COCC(C)O)O[C@@H]3COCC(C)O (stereo partly drawn) [2-HYDROXYPROPYL-BETA-CYCLODEXTRIN]
Not Active: IC50 [1] | Ki [1] | IC50 [2] | Ki [2] | IC50 [3] | Ki [3] | IC50 [4] | IC50 [5] | IC50 [7] | Ki [7] | IC50 [6]

NC(=O)c1cccc(N)c1 [3-AMINOBENZAMIDE]
Not Active: IC50 [1] | Ki [1] | IC50 [2] | Ki [2] | IC50 [3] | Ki [3] | IC50 [4] | IC50 [5] | IC50 [7] | Ki [7] | IC50 [6]

C[C@H]1O[C@H](O[C@H]2[C@H](O)[C@@H](O)[C@@H](O[C@H]3[C@H](O)[C@@H](O)C(O)O[C@@H]3CO)O[C@@H]2CO)[C@H](O)[C@@H](O)[C@@H]1N[C@H]1C=C(CO)[C@@H](O)[C@H](O)[C@H]1O (some centres not stated) [ACARBOSE]
Not Active: IC50 [1] | Ki [1] | IC50 [2] | Ki [2] | IC50 [3] | Ki [3] | IC50 [4] | IC50 [5] | IC50 [7] | Ki [7] | IC50 [6]

CC[C@H]1[C@@H]2C[C@H]3[C@@H]4N(C)c5ccccc5[C@]45C[C@@H]([C@@H]2[C@H]5O)N3[C@@H]1O [AJMALINE]
Not Active: IC50 [1] | Ki [1] | IC50 [2] | Ki [2] | IC50 [3] | Ki [3] | IC50 [4] | IC50 [5] | IC50 [7] | Ki [7] | IC50 [6]

NCCCNCCSP(=O)(O)O [AMIFOSTINE]
Not Active: IC50 [1] | Ki [1] | IC50 [2] | Ki [2] | IC50 [3] | Ki [3] | IC50 [4] | IC50 [5] | IC50 [7] | Ki [7] | IC50 [6]

CN(C)CCC=C1c2ccccc2CCc2ccccc21 [AMITRIPTYLINE]
Not Active: IC50 [1] | Ki [1] | IC50 [2] | Ki [2] | IC50 [3] | Ki [3] | IC50 [4] | IC50 [5] | IC50 [7] | Ki [7] | IC50 [6]

CC(=O)Oc1ccccc1C(=O)O [ASPIRIN]
Not Active: IC50 [1] | Ki [1] | IC50 [2] | Ki [2] | IC50 [3] | Ki [3] | IC50 [4] | IC50 [5] | IC50 [7] | Ki [7] | IC50 [6]

CC(=O)OC[C@H]1O[C@@H](n2ncc(=O)[nH]c2=O)[C@H](OC(C)=O)[C@@H]1OC(C)=O [AZARIBINE]
Not Active: IC50 [1] | Ki [1] | IC50 [2] | Ki [2] | IC50 [3] | Ki [3] | IC50 [4] | IC50 [5] | IC50 [7] | Ki [7] | IC50 [6]

C[C@H]1[C@H](NC(=O)/C(=N\OC(C)(C)C(=O)O)c2csc(N)n2)C(=O)N1S(=O)(=O)O [AZTREONAM]
Not Active: IC50 [1] | Ki [1] | IC50 [2] | Ki [2] | IC50 [3] | Ki [3] | IC50 [4] | IC50 [5] | IC50 [7] | Ki [7] | IC50 [6]

O=C(O)CCNC(=O)c1ccc(/N=N/c2ccc(O)c(C(=O)O)c2)cc1 [BALSALAZIDE]
Not Active: IC50 [1] | Ki [1] | IC50 [2] | Ki [2] | IC50 [3] | Ki [3] | IC50 [4] | IC50 [5] | IC50 [7] | Ki [7] | IC50 [6]

ClC(Cl)(Cl)Cl [CARBON TETRACHLORIDE]
Not Active: IC50 [1] | Ki [1] | IC50 [2] | Ki [2] | IC50 [3] | Ki [3] | IC50 [4] | IC50 [5] | IC50 [7] | Ki [7] | IC50 [6]

CC(C)C[C@H]1C(=O)N2CCC[C@H]2[C@]2(O)O[C@](NC(=O)[C@@H]3C=C4c5cccc6[nH]cc(c56)C[C@H]4N(C)C3)(C(C)C)C(=O)N12 [ERGOCRYPTINE]
Not Active: IC50 [1] | Ki [1] | IC50 [2] | Ki [2] | IC50 [3] | Ki [3] | IC50 [4] | IC50 [5] | IC50 [6]

CC(C)(C(=O)O)c1ccc(C(O)CCCN2CCC(C(O)(c3ccccc3)c3ccccc3)CC2)cc1 (configuration not stated) [FEXOFENADINE]
Not Active: IC50 [1] | Ki [1] | IC50 [2] | Ki [2] | IC50 [3] | Ki [3] | IC50 [4] | IC50 [5] | IC50 [6]

CC(=O)OCC(=O)[C@@]12OC(C)(C)O[C@@H]1C[C@H]1[C@@H]3C[C@H](F)C4=CC(=O)C=C[C@]4(C)[C@@]3(F)[C@@H](O)C[C@@]12C [FLUOCINONIDE]
Not Active: IC50 [1] | Ki [1] | IC50 [2] | Ki [2] | IC50 [3] | Ki [3] | IC50 [4] | IC50 [5] | IC50 [6]

N[C@@H](Cn1ccc(=O)c(O)c1)C(=O)O [L-MIMOSINE]
Not Active: IC50 [1] | Ki [1] | IC50 [2] | Ki [2] | IC50 [3] | Ki [3] | IC50 [4] | IC50 [5] | IC50 [6]

C[C@@H]1C/C=C/C=C/C=C/C=C/[C@H](O[C@@H]2O[C@H](C)[C@@H](O)[C@H](N)[C@@H]2O)C[C@@H]2O[C@](O)(C[C@@H](O)C[C@H]3O[C@@H]3/C=C/C(=O)O1)C[C@H](O)[C@H]2C(=O)O [NATAMYCIN]
Not Active: IC50 [1] | Ki [1] | IC50 [2] | Ki [2] | IC50 [3] | Ki [3] | IC50 [4] | IC50 [5] | IC50 [6]
